Measurements from the NIST ThermoML archive (doi:10.1021/je200811n).
± gives the expanded uncertainty stated by the source.

Details: Hot wire method

## F/C=C/C(F)(F)F [trans-1,3,3,3-tetrafluoropropene]
262.32 K, 98 kPa, Gas
  thermal conductivity: 0.01085 ± 0.00037 W/m/K
262.32 K, 15456 kPa, Liquid
  thermal conductivity: 0.09473 ± 0.001 W/m/K
262.36 K, 10416 kPa, Liquid
  thermal conductivity: 0.09243 ± 0.001 W/m/K
262.42 K, 488 kPa, Liquid
  thermal conductivity: 0.08745 ± 0.00096 W/m/K
262.42 K, 5301 kPa, Liquid
  thermal conductivity: 0.08997 ± 0.00098 W/m/K
262.42 K, 21223 kPa, Liquid
  thermal conductivity: 0.09713 ± 0.0011 W/m/K
262.45 K, 15452 kPa, Liquid
  thermal conductivity: 0.09456 ± 0.001 W/m/K
262.49 K, 10417 kPa, Liquid
  thermal conductivity: 0.09221 ± 0.001 W/m/K
262.56 K, 488 kPa, Liquid
  thermal conductivity: 0.08718 ± 0.00096 W/m/K
262.56 K, 5298 kPa, Liquid
  thermal conductivity: 0.08972 ± 0.00098 W/m/K
262.61 K, 123 kPa, Gas
  thermal conductivity: 0.01085 ± 0.00037 W/m/K
262.62 K, 107 kPa, Gas
  thermal conductivity: 0.01086 ± 0.00038 W/m/K
262.63 K, 98 kPa, Gas
  thermal conductivity: 0.01084 ± 0.00037 W/m/K
262.65 K, 80 kPa, Gas
  thermal conductivity: 0.01085 ± 0.00037 W/m/K
262.67 K, 97 kPa, Gas
  thermal conductivity: 0.01087 ± 0.00038 W/m/K
262.79 K, 21214 kPa, Liquid
  thermal conductivity: 0.0972 ± 0.0011 W/m/K
262.84 K, 15455 kPa, Liquid
  thermal conductivity: 0.09447 ± 0.001 W/m/K
262.89 K, 10416 kPa, Liquid
  thermal conductivity: 0.0922 ± 0.001 W/m/K
262.96 K, 5304 kPa, Liquid
  thermal conductivity: 0.0897 ± 0.00098 W/m/K
262.96 K, 21225 kPa, Liquid
  thermal conductivity: 0.09681 ± 0.001 W/m/K
262.98 K, 488 kPa, Liquid
  thermal conductivity: 0.08717 ± 0.00095 W/m/K
262.99 K, 121 kPa, Gas
  thermal conductivity: 0.0108 ± 0.00037 W/m/K
263 K, 15446 kPa, Liquid
  thermal conductivity: 0.0942 ± 0.001 W/m/K
263.01 K, 106 kPa, Gas
  thermal conductivity: 0.01081 ± 0.00037 W/m/K
263.02 K, 97 kPa, Gas
  thermal conductivity: 0.01085 ± 0.00037 W/m/K
263.04 K, 80 kPa, Gas
  thermal conductivity: 0.01079 ± 0.00037 W/m/K
263.05 K, 98 kPa, Gas
  thermal conductivity: 0.01086 ± 0.00038 W/m/K
263.06 K, 10416 kPa, Liquid
  thermal conductivity: 0.09188 ± 0.001 W/m/K
263.13 K, 5299 kPa, Liquid
  thermal conductivity: 0.08937 ± 0.00098 W/m/K
263.15 K, Liquid
  thermal conductivity: 0.08688 ± 0.00055 W/m/K
263.16 K, 488 kPa, Liquid
  thermal conductivity: 0.08692 ± 0.00095 W/m/K
263.36 K, 21219 kPa, Liquid
  thermal conductivity: 0.09681 ± 0.0011 W/m/K
263.39 K, 119 kPa, Gas
  thermal conductivity: 0.01089 ± 0.00038 W/m/K
263.4 K, 15447 kPa, Liquid
  thermal conductivity: 0.0942 ± 0.001 W/m/K
263.42 K, 104 kPa, Gas
  thermal conductivity: 0.01088 ± 0.00038 W/m/K
263.43 K, 97 kPa, Gas
  thermal conductivity: 0.01089 ± 0.00038 W/m/K
263.45 K, 80 kPa, Gas
  thermal conductivity: 0.01089 ± 0.00038 W/m/K
263.45 K, 98 kPa, Gas
  thermal conductivity: 0.01081 ± 0.00037 W/m/K
263.48 K, 10415 kPa, Liquid
  thermal conductivity: 0.09186 ± 0.001 W/m/K
263.55 K, 21219 kPa, Liquid
  thermal conductivity: 0.09652 ± 0.001 W/m/K
263.56 K, 5297 kPa, Liquid
  thermal conductivity: 0.08933 ± 0.00098 W/m/K
263.59 K, 488 kPa, Liquid
  thermal conductivity: 0.08681 ± 0.00095 W/m/K
263.6 K, 15455 kPa, Liquid
  thermal conductivity: 0.09401 ± 0.001 W/m/K
263.68 K, 10416 kPa, Liquid
  thermal conductivity: 0.09153 ± 0.001 W/m/K
263.77 K, 5291 kPa, Liquid
  thermal conductivity: 0.08901 ± 0.00098 W/m/K
263.8 K, 488 kPa, Liquid
  thermal conductivity: 0.08652 ± 0.00095 W/m/K
272.01 K, 173 kPa, Gas
  thermal conductivity: 0.01193 ± 0.00041 W/m/K
272.22 K, 93 kPa, Gas
  thermal conductivity: 0.01165 ± 0.0004 W/m/K
272.23 K, 118 kPa, Gas
  thermal conductivity: 0.01168 ± 0.0004 W/m/K
272.23 K, 164 kPa, Gas
  thermal conductivity: 0.01178 ± 0.0004 W/m/K
272.24 K, 170 kPa, Gas
  thermal conductivity: 0.01181 ± 0.00041 W/m/K
272.27 K, 80 kPa, Gas
  thermal conductivity: 0.01132 ± 0.00039 W/m/K
272.44 K, 180 kPa, Gas
  thermal conductivity: 0.01146 ± 0.00039 W/m/K
272.47 K, 93 kPa, Gas
  thermal conductivity: 0.01156 ± 0.0004 W/m/K
272.47 K, 117 kPa, Gas
  thermal conductivity: 0.01157 ± 0.0004 W/m/K
272.47 K, 162 kPa, Gas
  thermal conductivity: 0.01169 ± 0.0004 W/m/K
272.51 K, 78 kPa, Gas
  thermal conductivity: 0.01132 ± 0.00039 W/m/K
272.73 K, 92 kPa, Gas
  thermal conductivity: 0.01149 ± 0.00039 W/m/K
272.73 K, 159 kPa, Gas
  thermal conductivity: 0.01161 ± 0.0004 W/m/K
272.74 K, 116 kPa, Gas
  thermal conductivity: 0.0115 ± 0.0004 W/m/K
272.74 K, 177 kPa, Gas
  thermal conductivity: 0.01151 ± 0.0004 W/m/K
272.76 K, 76 kPa, Gas
  thermal conductivity: 0.01132 ± 0.00039 W/m/K
272.99 K, 157 kPa, Gas
  thermal conductivity: 0.01156 ± 0.0004 W/m/K
273 K, 90 kPa, Gas
  thermal conductivity: 0.01144 ± 0.00039 W/m/K
273.01 K, 114 kPa, Gas
  thermal conductivity: 0.01146 ± 0.00039 W/m/K
273.03 K, 74 kPa, Gas
  thermal conductivity: 0.01133 ± 0.00039 W/m/K
273.1 K, 175 kPa, Gas
  thermal conductivity: 0.01153 ± 0.0004 W/m/K
273.15 K, Liquid
  thermal conductivity: 0.08321 ± 0.00053 W/m/K
273.28 K, 154 kPa, Gas
  thermal conductivity: 0.01152 ± 0.0004 W/m/K
273.29 K, 89 kPa, Gas
  thermal conductivity: 0.01139 ± 0.00039 W/m/K
273.3 K, 112 kPa, Gas
  thermal conductivity: 0.01142 ± 0.00039 W/m/K
273.31 K, 73 kPa, Gas
  thermal conductivity: 0.01134 ± 0.00039 W/m/K
273.47 K, 172 kPa, Gas
  thermal conductivity: 0.01157 ± 0.0004 W/m/K
273.48 K, 166 kPa, Gas
  thermal conductivity: 0.0116 ± 0.0004 W/m/K
273.58 K, 119 kPa, Gas
  thermal conductivity: 0.01167 ± 0.0004 W/m/K
273.62 K, 94 kPa, Gas
  thermal conductivity: 0.01167 ± 0.0004 W/m/K
273.64 K, 84 kPa, Gas
  thermal conductivity: 0.01168 ± 0.0004 W/m/K
273.88 K, 163 kPa, Gas
  thermal conductivity: 0.0116 ± 0.0004 W/m/K
274 K, 118 kPa, Gas
  thermal conductivity: 0.01166 ± 0.0004 W/m/K
274.07 K, 93 kPa, Gas
  thermal conductivity: 0.01171 ± 0.0004 W/m/K
274.08 K, 78 kPa, Gas
  thermal conductivity: 0.01173 ± 0.0004 W/m/K
274.32 K, 160 kPa, Gas
  thermal conductivity: 0.01166 ± 0.0004 W/m/K
274.45 K, 116 kPa, Gas
  thermal conductivity: 0.01173 ± 0.0004 W/m/K
274.52 K, 92 kPa, Gas
  thermal conductivity: 0.01174 ± 0.0004 W/m/K
274.54 K, 77 kPa, Gas
  thermal conductivity: 0.01173 ± 0.0004 W/m/K
274.78 K, 158 kPa, Gas
  thermal conductivity: 0.01168 ± 0.0004 W/m/K
274.92 K, 115 kPa, Gas
  thermal conductivity: 0.01175 ± 0.0004 W/m/K
275.01 K, 91 kPa, Gas
  thermal conductivity: 0.01175 ± 0.0004 W/m/K
275.03 K, 75 kPa, Gas
  thermal conductivity: 0.01176 ± 0.0004 W/m/K
275.27 K, 155 kPa, Gas
  thermal conductivity: 0.01171 ± 0.0004 W/m/K
275.43 K, 113 kPa, Gas
  thermal conductivity: 0.01179 ± 0.0004 W/m/K
275.53 K, 90 kPa, Gas
  thermal conductivity: 0.0118 ± 0.0004 W/m/K
275.55 K, 73 kPa, Gas
  thermal conductivity: 0.01186 ± 0.00041 W/m/K
281.19 K, 491 kPa, Liquid
  thermal conductivity: 0.08061 ± 0.00089 W/m/K
281.19 K, 20251 kPa, Liquid
  thermal conductivity: 0.09143 ± 0.001 W/m/K
281.22 K, 15223 kPa, Liquid
  thermal conductivity: 0.08878 ± 0.00097 W/m/K
281.25 K, 10286 kPa, Liquid
  thermal conductivity: 0.08621 ± 0.00094 W/m/K
281.25 K, 23293 kPa, Liquid
  thermal conductivity: 0.09262 ± 0.001 W/m/K
281.26 K, 20239 kPa, Liquid
  thermal conductivity: 0.09104 ± 0.001 W/m/K
281.27 K, 458 kPa, Liquid
  thermal conductivity: 0.08057 ± 0.0009 W/m/K
281.27 K, 5355 kPa, Liquid
  thermal conductivity: 0.08361 ± 0.00092 W/m/K
281.29 K, 15230 kPa, Liquid
  thermal conductivity: 0.0886 ± 0.00097 W/m/K
281.32 K, 10282 kPa, Liquid
  thermal conductivity: 0.08605 ± 0.00094 W/m/K
281.34 K, 5380 kPa, Liquid
  thermal conductivity: 0.08336 ± 0.00092 W/m/K
281.37 K, 102 kPa, Gas
  thermal conductivity: 0.01233 ± 0.00042 W/m/K
281.37 K, 144 kPa, Gas
  thermal conductivity: 0.01241 ± 0.00042 W/m/K
281.37 K, 199 kPa, Gas
  thermal conductivity: 0.01253 ± 0.00043 W/m/K
281.37 K, 244 kPa, Gas
  thermal conductivity: 0.01266 ± 0.00043 W/m/K
281.57 K, 23287 kPa, Liquid
  thermal conductivity: 0.09254 ± 0.001 W/m/K
281.59 K, 243 kPa, Gas
  thermal conductivity: 0.01263 ± 0.00043 W/m/K
281.59 K, 20208 kPa, Liquid
  thermal conductivity: 0.09091 ± 0.00099 W/m/K
281.6 K, 199 kPa, Gas
  thermal conductivity: 0.01245 ± 0.00043 W/m/K
281.61 K, 101 kPa, Gas
  thermal conductivity: 0.01221 ± 0.00042 W/m/K
281.61 K, 142 kPa, Gas
  thermal conductivity: 0.0123 ± 0.0004 W/m/K
